Assays:
[1] = tested on: Respiratory syncytial virus recombinant with luciferase (RSV-Luc5) in HEp-2 cells; assay: HEp-2 RSV-Luc5 384-well assay (EC50 RSVFLUC Hep2-384 v2, Example V); format: cell-based; conditions: human respiratory syncytial virus, HEp-2, 72 h, read-out: RSV Hep-2 FLuc EC50 (v2) (nM) (per Ex. V)
Summary of the method: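 HEp-2 cells (4,000/well) infected with RSV-Luc5 at MOI 0.5 in DMEM/10% FBS with compound, 10-point 1:3 dilutions, 3 days at 37 °C. Replication read by One-Glo luminescence, normalized to remdesivir (0%) and DMSO (100%). EC50 from non-linear regression as concentration giving 50% reduction.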

[2] = RSV HEP2-CC50-384-V2 (per Ex. V); format: cell-based; conditions: human

SMILES: CCCCCCCCCCCCCCCCCCOC[C@H](COP(=O)(O)OC[C@@]1(C#N)O[C@@H](c2ccc3c(N)ncnn23)[C@H](O)[C@@H]1O)OCc1ccc(C#N)nc1 [Compound 19, ((2R,3S,4R,5S)-5-(4-aminopyrrolo[2,1-f][1,2,4]triazin-7-yl)-2-cyano-3,4-dihydroxytetrahydrofuran-2-yl)methyl ((R)-2-((6-cyanopyridin-3-yl)methoxy)-3-(octadecyloxy)propyl) hydrogen phosphate]
- EC50 [1]: 60 nM
- CC50 at 3 days [2]: 46.4 µM

SMILES: CCCCCCCCCCCCCCCCC[C@H](COP(=O)(O)OC[C@@]1(C#N)O[C@@H](c2ccc3c(N)ncnn23)[C@H](O)[C@@H]1O)OCc1cc(Cl)cc(C#N)c1 [Compound 76, ((2R,3S,4R)-5-(4-aminopyrrolo[2,1-f][1,2,4]triazin-7-yl)-2-cyano-3,4-dihydroxytetrahydrofuran-2-yl)methyl ((R)-2-((3-chloro-5-cyanobenzyl)oxy)nonadecyl) hydrogen phosphate]
- EC50 [1]: 382 nM
- CC50 at 3 days [2]: 33.7 µM

SMILES: CCCCCCCCCCCCCCCCCC[C@H](COP(=O)(O)OC[C@@]1(C#N)O[C@@H](c2ccc3c(N)ncnn23)[C@H](O)[C@@H]1O)OCc1cc(Cl)cc(C#N)c1 [Compound 81, ((2R,3S,4R,5S)-5-(4-aminopyrrolo[2,1-f][1,2,4]triazin-7-yl)-2-cyano-3,4-dihydroxytetrahydrofuran-2-yl)methyl ((R)-2-((3-chloro-5-cyanobenzyl)oxy)icosyl) hydrogen phosphate]
- EC50 [1]: 445 nM
- CC50 at 3 days [2]: 23 µM

SMILES: CCCCCCCCCCCCCCCCCCC[C@H](COP(=O)(O)OC[C@@]1(C#N)O[C@@H](c2ccc3c(N)ncnn23)[C@H](O)[C@@H]1O)OCc1cc(Cl)cc(C#N)c1 [Compound 82, ((2R,3S,4R,5S)-5-(4-aminopyrrolo[2,1-f][1,2,4]triazin-7-yl)-2-cyano-3,4-dihydroxytetrahydrofuran-2-yl)methyl ((R)-2-((3-chloro-5-cyanobenzyl)oxy)henicosyl) hydrogen phosphate]
- EC50 [1]: 1250 nM
- CC50 at 3 days [2]: 29 µM

SMILES: CCCCCCCCCCCCCCCCCC[C@H](COP(=O)(O)OC[C@@]1(C#N)O[C@@H](c2ccc3c(N)ncnn23)[C@H](O)[C@@H]1O)OCc1cc(F)cc(C#N)c1 [Compound 84, ((2R,3S,4R,5S)-5-(4-aminopyrrolo[2,1-f][1,2,4]triazin-7-yl)-2-cyano-3,4-dihydroxytetrahydrofuran-2-yl)methyl ((R)-2-((3-cyano-5-fluorobenzyl)oxy)icosyl) hydrogen phosphate]
- EC50 [1]: 325 nM
- CC50 at 3 days [2]: > 50 µM

SMILES: CCCCCCCCCCCCCCCCOC[C@@H](COP(=O)(O)OC[C@@]1(C#N)O[C@@H](c2ccc3c(N)ncnn23)[C@H](O)[C@@H]1O)OCc1cc(F)cc(C#N)c1 [Compound 88, ((2R,3S,4R,5S)-5-(4-aminopyrrolo[2,1-f][1,2,4]triazin-7-yl)-2-cyano-3,4-dihydroxytetrahydrofuran-2-yl)methyl ((S)-2-((3-cyano-5-fluorobenzyl)oxy)-3-(hexadecyloxy)propyl) hydrogen phosphate]
- EC50 [1]: 191 nM
- CC50 at 3 days [2]: 36.6 µM
